Data set [1] relates to dopaminergic (TH+) neurites in primary midbrain cultures. As to the kind of experiment: Neurite length quantification of dopaminergic. Type of data set: cell-based, rat. The settings on record: for Change in dopaminergic (TH+) neurite length / Dopaminergic (TH+) neurite length (mean ± SEM) / Decrease in dopaminergic (TH+) neurite length / Concentration at which decreased dopaminergic (TH+) neurite length was detected: 24 h; for Decrease in dopaminergic (TH+) neurite length: vs. control; for Change in dopaminergic (TH+) neurite length, time course: 24 – 72 h; for Concentration at which decreased dopaminergic (TH+) neurite length was detected: doses 100 nM – 5 µM.

For data set [2], the system named is dopaminergic (TH+, MAP2+) neurons in primary midbrain cultures. The data set is classed as cell-based, rat. The settings on record: for mean % dopaminergic neurons ± S.E.M: n = 6; for Selective loss of dopaminergic neurons / DA neuron loss at 1 µM: vs. control; for percentage of dopaminergic neurons (mean ± SEM), time course: n = 4, control 6.30 ± 0.58.
Data set [3] relates to non-dopaminergic (TH-, MAP2+) neurons in primary midbrain cultures. As to the kind of experiment: Raw non-dopaminergic. The data set is classed as cell-based, rat. The settings on record: 1 µM, 24 – 72 h, all time-points.
For data set [4] the test system is unchanged. The data set can be described thus: 3-Nitrotyrosine. The note with it: 1 µM; control 100 ± 21.61.
Data set [5] has as its system dopaminergic (TH+, MAP2+) neurons in primary midbrain cultures. The data set can be described thus: 3-Nitrotyrosine. The settings on record: 1 µM; for NT fluorescence intensity normalized to mean control value ± SEM, dopaminergic neurons: control 100 ± 9.1.
For data set [6], the system named is total neurons (MAP2+) in primary midbrain cultures. As to the kind of experiment: Neurite length quantification, pan-neuronal. Type of data set: cell-based, rat. The note with it: 1 µM, 24 – 72 h, all time-points.
The conditions of data set [7]: ref PubChem Compound Database; cited from earlier work.

“And” between values parts separate entries of the source, which are not always exact repeats. Identical values can stand only once. “Also recorded” adds a separate entry of the source. Like-named read-outs stand apart in the source and are kept apart here.

As for `Cc1cnc2cc(C)c3c(nc(N)n3C)c2n1` [4,8-DiMeIQx, 2-amino-3,4,8-trimethylimidazo[4,5-f]quinoxaline], the “Change in dopaminergic (TH+) neurite length” value in data set [1] (all tested doses 100 nM – 5 µM) is listed as “no significant alteration; also recorded: did not have an effect”. In data set [2] (100 nM, 24 h), the “mean % dopaminergic neurons ± S.E.M” value came to 4.663 ± 0.3194% and the “Selective loss of dopaminergic neurons” value turned out to be 20%. For the same compound, the “DA neuron loss at 1 µM” value in data set [2] (1 µM, 24 h) worked out at 26%.
As for `Nc1ccc2c(n1)[nH]c1ccccc12` [AαC, 2-amino-9H-pyrido[2,3-b]indole], in data set [1] (100 nM), the “Dopaminergic (TH+) neurite length (mean ± SEM)” value is listed as 62.93 ± 1.743 µm and the “Decrease in dopaminergic (TH+) neurite length” value (“Decrease in dopaminergic” below) was 11%. In data set [2] (1 µM, 24 h), the “mean % dopaminergic neurons ± S.E.M” value turned out to be 3.932 ± 0.4382% and the “DA neuron loss at 1 µM” value came to 27%.
`Cc1nccc2c1[nH]c1ccccc12` [Harmane, 1-methyl-9H-pyrido[3,4-b]indole]: in data set [1] (100 nM), the “Dopaminergic (TH+) neurite length (mean ± SEM)” value is 62.67 ± 1.713 µm and the “Decrease in dopaminergic” value was 14%. Also, in data set [1] (1 µM), the “Change in dopaminergic (TH+) neurite length, time course” value (“Change in dopaminergic … time course” below) is on record as “Decreased”. Further, the “Effect on non-dopaminergic (MAP2+/TH-) cell counts, time course” value in data set [3] was “not affected”. In addition, in data set [2], the “Threshold for detectable selective DA neurotoxicity” value came out at 200 nM. For the same compound, in data set [2] (200 nM, 24 h), the “mean % dopaminergic neurons ± S.E.M” value is listed as 4.677 ± 0.2123% and the “Selective loss of dopaminergic neurons” value is given as 15%. In addition, in data set [2] (1 µM, 24 h), the “percentage of dopaminergic neurons (mean ± SEM), time course” value (“percentage … (mean ± SEM), time course” below) was 6.04 ± 0.72% and the “DA neuron loss at 1 µM” value is listed as 21%. Also, in data set [2] (1 µM, 48 h), the “percentage … (mean ± SEM), time course” value is 4.80 ± 0.90%. In data set [2] (1 µM, 72 h), the “percentage … (mean ± SEM), time course” value came out at 3.47 ± 0.53%. Also, in data set [4], the “NT fluorescence intensity normalized to mean control value ± SEM, non-dopaminergic neurons” value is recorded as 188.1 ± 23.92. For the same compound, in data set [5], the “Fold increase in NT immunofluorescence signal vs. control, dopaminergic neurons” value is reported as ~7 fold and the “NT fluorescence intensity normalized to mean control value ± SEM, dopaminergic neurons” value worked out at 731.3 ± 94.03. In addition, the “Effect on non-dopaminergic neurites, time course” value in data set [6] was “not affected”.
For `Cn1c(N)nc2c3cccnc3ccc21` [IQ, 2-amino-3-methylimidazo[4,5-f]quinoline], the “Change in dopaminergic (TH+) neurite length” value in data set [1] (higher doses) is listed as “not significant decreases”. In addition, the “Change in dopaminergic (TH+) neurite length” value in data set [1] (low doses (100 and 200 nM)) is listed as “significant increases”. For the same compound, the “DA neuron loss at 1 µM” value in data set [2] (1 µM, 24 h) is recorded as “Not significant”. In data set [2] (5 µM, 24 h), the “mean % dopaminergic neurons ± S.E.M” value is listed as 4.338 ± 0.4525% and the “Selective loss of dopaminergic neurons” value is on record as 23%.
As to `Cc1cc2ncccc2c2nc(N)n(C)c12` [MeIQ, 2-amino-3,4-dimethylimidazo[4,5-f]quinoline], in data set [1] (1 µM), the “Change in dopaminergic … time course” value is reported as “Decreased”; the “Dopaminergic (TH+) neurite length (mean ± SEM)” value is 63.58 ± 1.584 µm; the “Decrease in dopaminergic” value worked out at 10%. Moreover, in data set [3], the “Effect on non-dopaminergic (MAP2+/TH-) cell counts, time course” value was “not affected”. For the same compound, in data set [2] (200 nM, 24 h), the “mean % dopaminergic neurons ± S.E.M” value is recorded as 4.372 ± 0.3579% and the “Selective loss of dopaminergic neurons” value amounted to 23%. In data set [2] (1 µM, 24 h), the “percentage … (mean ± SEM), time course” value is 5.51 ± 0.66% and the “DA neuron loss at 1 µM” value is 25%. Also, in data set [2] (1 µM, 48 h), the “percentage … (mean ± SEM), time course” value came to 5.11 ± 0.66%. In data set [2] (1 µM, 72 h), the “percentage … (mean ± SEM), time course” value came to 3.90 ± 0.81%. For the same compound, the “NT fluorescence intensity normalized to mean control value ± SEM, non-dopaminergic neurons” value in data set [4] came out at 130.1 ± 14.91. In addition, in data set [5], the “Fold increase in NT immunofluorescence signal vs. control, dopaminergic neurons” value was > 5 fold and ~4 fold; the “NT fluorescence intensity normalized to mean control value ± SEM, dopaminergic neurons” value worked out at 362.9 ± 45.8. Besides, the “Effect on non-dopaminergic neurites, time course” value in data set [6] is recorded as “not affected”.
Broadly, the Log P is the decadic logarithm of the partition coefficient of the neutral form, usually between octanol and water. In the case of `Cc1cnc2ccc3c(nc(N)n3C)c2n1` [MeIQx, 2-amino-3,8-dimethylmidazo[4,5-f]quinoxaline], in data set [1] (1 µM), the “Dopaminergic (TH+) neurite length (mean ± SEM)” value is on record as 61.97 ± 1.94 µm and the “Decrease in dopaminergic” value was determined as 12%. Moreover, the “Concentration at which decreased dopaminergic (TH+) neurite length was detected” value in data set [1] stood at 1000 nM. In data set [2] (1 µM, 24 h), the “mean % dopaminergic neurons ± S.E.M” value is 4.207 ± 0.3535% and the “DA neuron loss at 1 µM” value was determined as 17%. In addition, in data set [7], the “Log P” value is given as 1.0.
Turning to `c1ccc2c(c1)[nH]c1cnccc12` [Norharmane, 9H-Pyrido[3,4-B]indole], in data set [1] (500 nM), the “Dopaminergic (TH+) neurite length (mean ± SEM)” value is 63.15 ± 1.864 µm and the “Decrease in dopaminergic” value stood at 11%. Further, the “Concentration at which decreased dopaminergic (TH+) neurite length was detected” value in data set [1] worked out at 500 nM. Moreover, in data set [1] (listed as norharmane), the “Concentration at which decreased dopaminergic (TH+) neurite length was detected” value was ≥ 500 nM. In data set [2] (100 nM, 24 h), the “mean % dopaminergic neurons ± S.E.M” value was determined as 4.703 ± 0.3711% and the “Selective loss of dopaminergic neurons” value worked out at 18%. Besides, in data set [2] (1 µM, 24 h), the “DA neuron loss at 1 µM” value stood at 20%.
Turning to `Cn1c(N)nc2ncc(-c3ccccc3)cc21` [PhIP, 2-amino-1-methyl-6-phenylimidazo[4,5-b]pyridine], in data set [1] (1 µM), the “Change in dopaminergic … time course” value is on record as “Decreased”; the “Dopaminergic (TH+) neurite length (mean ± SEM)” value is given as 57.76 ± 1.656 µm; the “Decrease in dopaminergic” value came to 15%. For the same compound, the “Effect on non-dopaminergic (MAP2+/TH-) cell counts, time course” value in data set [3] is listed as “not affected”. Also, in data set [2] (1 µM, 24 h), the “percentage … (mean ± SEM), time course” value is listed as 5.17 ± 0.95%; the “mean % dopaminergic neurons ± S.E.M” value came out at 4.612 ± 0.3403%; the “DA neuron loss at 1 µM” value amounted to 19%. The “percentage … (mean ± SEM), time course” value in data set [2] (1 µM, 48 h) is recorded as 4.60 ± 0.70%. The “percentage … (mean ± SEM), time course” value in data set [2] (1 µM, 72 h) came to 3.61 ± 0.45%. Moreover, in data set [6], the “Effect on non-dopaminergic neurites, time course” value is on record as “not affected”.

Source of the values: paper PMC6015749 (Neurotoxicology, 2018).
